The test system of the assay is α-L-rhamnosidase from A. terreus. Briefly: Influence of rhamnose excess on rhamnosidase activity (product inhibition). The conditions noted are these: pNPR substrate, rhamnose solutions 0.6-3 mM added 1:1:1, pH 6.5, 40° C., 30 minutes. It is filed as biochemical, Aspergillus terreus. How it is done:
The activity is expressed as the changes in time of the relative absorbance at 405 nm. The absorbance was measured every 30 sec. Substrate was used at 100 μM. The analysis was performed only for α-l-rhamnosidase from A. terreus. The influence of rhamnose excess on enzyme activity was investigated using the same colorimetric method as described above (See FIG. 1). The pNPR substrate was first dissolved in DMSO, with concentration adjusted to 300 μM in 100 mM sodium phosphate buffer pH 6.5. Enzymes were diluted to concentration of 30 μg/mL in 100 mM sodium phosphate buffer pH 6.5. Following sequence of rhamnose concentrations were prepared in 100 mM sodium phosphate buffer pH 6.5: 0.6 mM, 1.2 mM, 1.8 mM, 2.4 mM, 3 mM. 240 μL of the total reaction mixture was prepared by adding the substrate solution, the enzyme solution and the rhamnose solution in 1:1:1 ratio. The activity assay was performed on 96-well Microtiter UV plate by Thermo Scientific (Waltham, MA USA). All reactions were done at pH 6.5 and in temperature 40° C. The changes in absorbance were monitored at 405 nm for 30 minutes in Microplate reader Varioskan® Flash.

Regarding `C[C@H](O)[C@H](O)[C@@H](O)[C@@H](O)C=O` [rhamnose], the “substrate conversion rate with increasing amount of rhamnose added” value is “decreased”.

(Values after US20240084353A1, “PROCESS TO PRODUCE MONO-RHAMNOLIPIDS” (Conopco, Inc., d/b/a UNILEVER, priority 2021, published 2024).)
